# Experimental data: ChEMBL document CHEMBL1177693, “Antimalarials from nature” (Bioorg Med Chem, 2009)
# Experiments:
# Plasmodium falciparum [1] = test: Antimalarial activity against chloroquine-resistant Plasmodium falciparum; format: functional, organism-based
# Plasmodium falciparum [2] = test: Antimalarial activity against chloroquine-sensitive Plasmodium falciparum; format: functional, organism-based
# [3] = molecular target: T1, Enoyl-acyl-carrier protein reductase (Plasmodium falciparum, UniProt Q965D5); test: (§1) Inhibition of Plasmodium falciparum Fabl
# T1 sequence (Q965D5 whole entry): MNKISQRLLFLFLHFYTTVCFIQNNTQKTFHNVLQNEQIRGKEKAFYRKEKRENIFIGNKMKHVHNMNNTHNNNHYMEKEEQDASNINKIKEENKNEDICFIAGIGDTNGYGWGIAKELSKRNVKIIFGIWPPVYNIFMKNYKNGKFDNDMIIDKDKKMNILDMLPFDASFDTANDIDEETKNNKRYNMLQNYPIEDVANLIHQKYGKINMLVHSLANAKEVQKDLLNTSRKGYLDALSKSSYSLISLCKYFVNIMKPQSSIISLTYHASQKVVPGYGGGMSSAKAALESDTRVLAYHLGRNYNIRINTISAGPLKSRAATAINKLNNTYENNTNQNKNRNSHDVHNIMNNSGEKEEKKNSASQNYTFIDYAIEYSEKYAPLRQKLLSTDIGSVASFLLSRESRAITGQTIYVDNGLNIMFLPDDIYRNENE
# [4] = (§2) Inhibition of Plasmodium falciparum FabG
# Plasmodium falciparum [5] = test: Antimalarial activity against Plasmodium falciparum K1; format: functional, organism-based
# Plasmodium falciparum [6] = test: Antimalarial activity against Plasmodium falciparum NF54; format: functional, organism-based
# Plasmodium berghei = test: Antimalarial activity against Plasmodium berghei infected in mice (Mus musculus) assessed as increase in survival of mice (Mus musculus) at 100 uM/kg; format: functional
# Plasmodium falciparum [7] = test: Antimalarial activity against Plasmodium falciparum T9-96; format: functional, organism-based
# Plasmodium falciparum [8] = test: Antimalarial activity against Plasmodium falciparum D6; format: functional, organism-based
# Plasmodium falciparum [9] = test: Antimalarial activity against Plasmodium falciparum W2; format: functional, organism-based
# Plasmodium falciparum [10] = test: Antimalarial activity against chloroquine-sensitive Plasmodium falciparum D6; format: functional, organism-based
# Plasmodium falciparum [11] = test: Antimalarial activity against multidrug-resistant Plasmodium falciparum K1; format: functional, organism-based
# [12] = molecular target: T2, Enoyl-acyl-carrier protein reductase (Plasmodium falciparum) (UniProt Q965D5); test: as §1
# T2 sequence (whole entry): T1 sequence (Q965D5 whole entry)
# Plasmodium falciparum [13] = test: as §2; details: concentration not given here
# Plasmodium falciparum [14] = test: Antimalarial activity against chloroquine-resistant Plasmodium falciparum FCB1; format: functional, organism-based; details: FcB1/Columbia
# Plasmodium falciparum [15] = test: Antimalarial activity against chloroquine-resistant Plasmodium falciparum Dd2; format: functional, organism-based
# Plasmodium falciparum [16] = test: Antimalarial activity against chloroquine-sensitive Plasmodium falciparum PoW; format: functional, organism-based
# Plasmodium falciparum [17] = test: Antimalarial activity against Plasmodium falciparum FCB1-R; format: functional, organism-based
# Plasmodium falciparum [18] = test: Antimalarial activity against Plasmodium falciparum FCA 20; format: functional, organism-based
# Plasmodium falciparum [19] = test: Antimalarial activity against chloroquine-sensitive Plasmodium falciparum D10; format: functional, organism-based
smiles,measurement,setting,value
"Cc1c2c(cc3c1C(=O)C=C(C(C)C)C3=O)C(C)(C)CCC2 [12,16-DIDEOXY AEGYPTINONE B]",IC50,Plasmodium falciparum [1],1.4 µg/mL
same,IC50,Plasmodium falciparum [2],1.3 µg/mL
C=C1C(=O)OC[C@H]1[C@@H](/C=C(\C)CC(=O)C=C(C)C)OC(C)=O,IC50,[3],65300 nM
same,IC50,[4],20 µg/mL
COc1c2c(c(O)c3c4c(c(C)cc13)[C@@H]1O[C@@]3(C(OC)OC)O[C@@H]1[C@@](O[C@H]1C[C@@H](O)[C@@](O)(C(C)=O)[C@H](C)O1)(O4)[C@@]31CO1)C(=O)[C@@H](O)C[C@@H]2O[C@H]1C[C@@](C)(O)[C@H](O)[C@H](C)O1 [TRIOXACARCIN D],IC50,Plasmodium falciparum [5],0.0015 µg/mL
same,IC50,Plasmodium falciparum [6],0.0017 µg/mL
CCN(CC)CCCC(C)Nc1ccnc2cc(Cl)ccc12 (stereo not given) [CHLOROQUINE],Survival,Plasmodium berghei,6 days
CO[C@@H]1C=C[C@@]23c4cc5c(cc4CN(C[C@@H]2O)[C@H]3C1)OCO5 [(+)-HAEMANTHAMINE],IC50,Plasmodium falciparum [7],0.7 µg/mL
COc1cc(/C=C/C(=O)CC(=O)/C=C/c2ccc(O)c(OC)c2)ccc1O [CURCUMIN],IC50,Plasmodium falciparum [8],3.5 µg/mL
same,IC50,Plasmodium falciparum [9],4.2 µg/mL
COc1ccc(C[C@H]2NC[C@H](O)[C@H]2OC(C)=O)cc1 [ANISOMYCIN],IC50,Plasmodium falciparum [10],4600 nM
C[C@@H]1CC[C@H]2[C@@H](C)C(=O)O[C@@H]3O[C@@]4(C)CC[C@@H]1[C@]32OO4 [ARTEMISININ],Survival,Plasmodium berghei,2 days
Oc1cccc2c1[nH]c1c(C3=C[C@]4(O)CC/C=C\CCCCN5CC[C@H]3[C@@]3(C[C@H]6/C=C\CCCCN6[C@@H]34)C5)nccc12 [ENT-8-HYDROXYMENZAMINE A],Survival,Plasmodium berghei,9 days
CC[C@@]12CCCN3CC[C@]4(c5ccc(OC)c(O)c5N(C(C)=O)[C@@H]4CC1)[C@H]32 [ASPIDOCARPINE],IC50,Plasmodium falciparum [11],19 nM
C=C1C(=O)OC[C@H]1[C@H](O)/C=C(\C)CC(=O)C=C(C)C,fold change (FC),[12],5
same,inhibition,Plasmodium falciparum [13],25%
COC(=O)[C@]12OC[C@]34[C@H]([C@@H](O)[C@@H]1O)[C@@]1(C)C5=CC(=O)OC5=C[C@@H](C)[C@@H]1C[C@H]3OC(=O)[C@H](OC(C)=O)[C@@H]24 [NEOSERGEOLIDE],IC50,Plasmodium falciparum [11],2 nM
O=C(Oc1cc(O)cc2c1C[C@H](O)[C@@H](c1ccc(O)c(O)c1)O2)c1cc(O)c(O)c(O)c1,IC50,Plasmodium falciparum [14],1200 nM
COc1ccc(-c2coc3cc(O)ccc3c2=O)cc1O [CALYCOSIN],IC50,Plasmodium falciparum [15],9.8 µg/mL
same,IC50,Plasmodium falciparum [16],4.2 µg/mL
C=Cc1c[n+]2c(c(O)c1C[C@H]1c3[nH]c4ccccc4c3CCN1C)-c1[nH]c3c([C@H]4CCCN4C)c(O)ccc3c1CC2 [CHRYSOPENTAMINE],IC50,Plasmodium falciparum [17],500 nM
same,IC50,Plasmodium falciparum [9],500 nM
same,IC50,Plasmodium falciparum [18],500 nM
O=C(O)[C@@H]1[C@H](C(=O)O)[C@H]2CC[C@@H]1O2 [ENDOTHALL],IC50,Plasmodium falciparum [10],7800 nM
C/C=C/C/C=C/CCC(=O)[C@H]1O[C@H]1C(N)=O [CERULENIN],IC50,Plasmodium falciparum [10],10100 nM
COc1cc(O)cc2c1c(=O)c1ccccc1n2C [TEGERRARDIN A],IC50,Plasmodium falciparum [19],12300 nM
CN1C2=CC(O)=c3ccccc3=NC2c2ccccc21 (stereo not given) [CRYPTOHEPTINE],IC50,Plasmodium falciparum [11],800 nM
O[C@@H]1CCCN2CC[C@@H]1O[C@@]13CC[C@@H](OC[C@]45CN6CCCC/C=C\CC[C@](O)(C=C(c7nccc8c7[nH]c7ccccc78)[C@@H]4CC6)[C@H]25)[C@@H](O)CCN1[C@@H]1[C@]2(CN4CCCC/C=C\CC[C@]1(O)C=C(c1nccc5c1[nH]c1ccccc15)[C@@H]2CC4)C3 [NEO-KAULUAMINE],Survival,Plasmodium berghei,9 days
C[C@@H]1O[C@@H](Oc2cc3oc(-c4ccc(O)c(O)c4)cc(=O)c3c(O)c2O)[C@H](O)[C@H](O)[C@H]1O,IC50,Plasmodium falciparum [5],2130 nM
same,IC50,Plasmodium falciparum [6],3320 nM
